Measurements taken from the supplement of paper PMC11208160.

Experiment: recombinant UMI read abundance after kanamycin selection (control-corrected) (log10(CPM+1)); higher = more efficient recombination; extreme values may be limits of the assay; sequences stand for … in AGTGCAGAGAAAATCGGCCAGTTTTCTCTGCCTGCAGTCCGCATGCCGTGGGACCCCTTGGGTTCTAACCTGTTGCCTAGATTTATGCAGCGGACTGCCTTTCTCCCAAAGTGATAAACCGG…AGGTTGGTTTCACT; site = the 11-nt donor
Procedure, shortened: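 Values are reported as log10(CPM+1), obtained by converting sequencing counts to CPM, averaging replicates and scaling by control-derived factors. The counts came from recombinant UMIs amplified by PCR across the donor–target junction. These UMIs came from a pooled Escherichia coli screen of donor and donor-binding-loop pairs for the IS621 bridge recombinase, plated with IPTG (0.07 mM) plus kanamycin or left unselected, in two replicates each.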
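Note: IS621 bridge recombinase in Escherichia coli cells against a fixed T5 target plasmid.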

Sequence	recombinant UMI read abundance (log10)
ACACAACCATGGACCGGTTTTCCCGGTAATCCGTATTTGAC (site ACACATCCTGT)	0
GAGGCACCATGGACCGGTTTTCCCGGTAATCCGTATTTGCA (site GGGGCACCTTG)	0
CCATGTGCATGGACCGGTTTTCCCGGTAATCCGTATTTGAA (site CCATGTGCTTT)	0.336
ACAGTATCATGGACCGGTTTTCCCGGTAATCCGTATTTGCA (site AAAGTCTCTTG)	0.0144
GAATGTCCATGGACCGGTTTTCCCGGTAATCCGTATTTGCA (site GAATGACCTTG)	0
CCCGGTGCATGGACCGGTTTTCCCGGTAATCCGTATTTGAT (site CCAGGTGCTAT)	0.119
CGACAATCATGGACCGGTTTTCCCGGTAATCCGTATTTGCT (site CGACAATCTAG)	2.77
CTATTAACATGGACCGGTTTTCCCGGTAATCCGTATTTGGA (site CTAATAACTTC)	0.484
CGATGCTCATGGACCGGTTTTCCCGGTAATCCGTATTTGAA (site CTATGCTCTTT)	0.0185
ACCTCTACATGGACCGGTTTTCCCGGTAATCCGTATTTGTG (site ACTTCTACTCA)	0.0231
GGCCACCCATGGACCGGTTTTCCCGGTAATCCGTATTTGAT (site GGCCACCCTAC)	0.00622
CCCTACCCATGGACCGGTTTTCCCGGTAATCCGTATTTGCC (site CCCTAACCTGG)	0
CCCATATCATGGACCGGTTTTCCCGGTAATCCGTATTTGTC (site CCCATATCTGG)	0
AGAACGCCATGGACCGGTTTTCCCGGTAATCCGTATTTGCC (site AGAACGCCTGG)	0.968
ACAAATCCATGGACCGGTTTTCCCGGTAATCCGTATTTGAC (site ACACATCCTGT)	0
TAGCCGTCATGGACCGGTTTTCCCGGTAATCCGTATTTGGT (site TAGCCTTCTAC)	0.013
CTACTAACATGGACCGGTTTTCCCGGTAATCCGTATTTGGA (site CTACTAACTAC)	0.0107
GTGCATTCATGGACCGGTTTTCCCGGTAATCCGTATTTGGT (site GTGCATACTAC)	0.361
TCGAATCCATGGACCGGTTTTCCCGGTAATCCGTATTTGAG (site TCGAATCCTCT)	0.516
CGACGAGCATGGACCGGTTTTCCCGGTAATCCGTATTTGGG (site ACGTCGACTTT)	0.00438
TACTCCTCATGGACCGGTTTTCCCGGTAATCCGTATTTGCC (site TACTCCTCTGG)	2.63
TATACACCATGGACCGGTTTTCCCGGTAATCCGTATTTGAC (site TCTACACCTGT)	0.0077
TCCTACTCATGGACCGGTTTTCCCGGTAATCCGTATTTGCA (site TCCTACTCTTG)	0
GCGCAAACATGGACCGGTTTTCCCGGTAATCCGTATTTGCT (site GCGTAAACTAG)	0
TTTCAAACATGGACCGGTTTTCCCGGTAATCCGTATTTGTG (site TTTCAAACTCA)	0.0135

Sequence	recombinant UMI read abundance (log10)
GGCAATCCATGGACCGGTTTTCCCGGTAATCCGTATTTGAA (site TGCAATCCTTT)	0.0119
GGCAATCCATGGACCGGTTTTCCCGGTAATCCGTATTTGAA (site GGCTATCCTTT)	0.316
TCCACCGCATGGACCGGTTTTCCCGGTAATCCGTATTTGCA (site TCCACCGCTAG)	0.00852
CTGTCTTCATGGACCGGTTTTCCCGGTAATCCGTATTTGGG (site CTGTCTTCTCC)	0.0096
GCCAATTCATGGACCGGTTTTCCCGGTAATCCGTATTTGCC (site CCCAATTCTGG)	0
AGCCTAGCATGGACCGGTTTTCCCGGTAATCCGTATTTGTT (site AGCCTAGCTCA)	0.0329
AAATTTGCATGGACCGGTTTTCCCGGTAATCCGTATTTGGC (site AAATTTGCTGC)	0
TCTAGTGCATGGACCGGTTTTCCCGGTAATCCGTATTTGGT (site CCTAGTGCTAC)	0.229
AGAAACACATGGACCGGTTTTCCCGGTAATCCGTATTTGGT (site AGAAACACTAC)	2.3
ACTCCGCCATGGACCGGTTTTCCCGGTAATCCGTATTTGTG (site ACTCCGCCTCA)	0.0108
AAGGTGTCATGGACCGGTTTTCCCGGTAATCCGTATTTGAC (site AACGTGTCTGT)	0.678
GGGACATCATGGACCGGTTTTCCCGGTAATCCGTATTTGCT (site GGGACATCTAG)	1.43
GATTGGACATGGACCGGTTTTCCCGGTAATCCGTATTTGAC (site GGTTGGACTGT)	0.928
GTAGGCGCATGGACCGGTTTTCCCGGTAATCCGTATTTGAC (site GTAGGCGCTGT)	1.9
TGGCCGTCATGGACCGGTTTTCCCGGTAATCCGTATTTGGC (site TGGCCGGCTGC)	0
GAATGTCCATGGACCGGTTTTCCCGGTAATCCGTATTTGCA (site GAATGCCCTTG)	0
CAGGAGTCATGGACCGGTTTTCCCGGTAATCCGTATTTGCC (site CGGGAGTCTGG)	0
ATAGCATCATGGACCGGTTTTCCCGGTAATCCGTATTTGCA (site ATAGCATCTTG)	2.9
CCTAGAACATGGACCGGTTTTCCCGGTAATCCGTATTTGAG (site GCTAGAACTCT)	0.0133
CCTGTCGCATGGACCGGTTTTCCCGGTAATCCGTATTTGAG (site CCTGTCGCTCT)	0.909
ACTTAATCATGGACCGGTTTTCCCGGTAATCCGTATTTGTA (site ACTTAATCTTA)	2.15
ACTTATGCATGGACCGGTTTTCCCGGTAATCCGTATTTGGA (site AGTTATGCTTC)	0.698
TACTTGGCATGGACCGGTTTTCCCGGTAATCCGTATTTGCT (site TACTTGACTAG)	0.00409
CCCTTCTCATGGACCGGTTTTCCCGGTAATCCGTATTTGGG (site CCCTTCTCTAC)	0
CTAGAAACATGGACCGGTTTTCCCGGTAATCCGTATTTGCA (site CTGGAAACTTG)	1.83

Sequence	recombinant UMI read abundance (log10)
ACAGTATCATGGACCGGTTTTCCCGGTAATCCGTATTTGCA (site ACTGTGTCTTG)	1.26
GTACGTACATGGACCGGTTTTCCCGGTAATCCGTATTTGAC (site GTAGGTACTGT)	0.0679
GAAGATACATGGACCGGTTTTCCCGGTAATCCGTATTTGTT (site GAAGATACTAA)	2.29
CCTGTATCATGGACCGGTTTTCCCGGTAATCCGTATTTGCA (site ACAGTATCTTG)	0
AAGCAGGCATGGACCGGTTTTCCCGGTAATCCGTATTTGGG (site AAGCACGCTCC)	0.0214
CAAGCGGCATGGACCGGTTTTCCCGGTAATCCGTATTTGTG (site CAAGCGACTCA)	1.37
AATGTAACATGGACCGGTTTTCCCGGTAATCCGTATTTGCT (site AATGCAACTAG)	0.239
GTATGAACATGGACCGGTTTTCCCGGTAATCCGTATTTGAG (site GTATGAACTCT)	1.87
TCACCGACATGGACCGGTTTTCCCGGTAATCCGTATTTGGA (site TCACCGACTTC)	0.0438
GTTGTTGCATGGACCGGTTTTCCCGGTAATCCGTATTTGGT (site GTTGTTCCTAC)	0.00209
TTTCTACCATGGACCGGTTTTCCCGGTAATCCGTATTTGGG (site TTTCTACCTCC)	0.00805
TCCAGCACATGGACCGGTTTTCCCGGTAATCCGTATTTGTG (site TCCAGCACTCA)	0.0248
GGCCTCCCATGGACCGGTTTTCCCGGTAATCCGTATTTGTT (site GGCCCCCCTAA)	0
TGGAATCCATGGACCGGTTTTCCCGGTAATCCGTATTTGGT (site TGGAATCCTAC)	0
AAATGCTCATGGACCGGTTTTCCCGGTAATCCGTATTTGAA (site AAATGCTCTTT)	1.66
AATTTAACATGGACCGGTTTTCCCGGTAATCCGTATTTGCT (site AATCTAACTAG)	1.95
TTTAGAACATGGACCGGTTTTCCCGGTAATCCGTATTTGGC (site ATTAGAACTGC)	0.0159
CCGTTTACATGGACCGGTTTTCCCGGTAATCCGTATTTGCT (site CAGTTTACTAG)	0
TAGGTAGCATGGACCGGTTTTCCCGGTAATCCGTATTTGAA (site TAGATAGCTTT)	0.894
ACCTCTACATGGACCGGTTTTCCCGGTAATCCGTATTTGTG (site ACATCTACTCA)	0.014
AGCCTTTCATGGACCGGTTTTCCCGGTAATCCGTATTTGAC (site CGCCTTTCTGT)	0
GTTCGAGCATGGACCGGTTTTCCCGGTAATCCGTATTTGGG (site GTTCGAGCTCC)	0.00765
TAAAGCCCATGGACCGGTTTTCCCGGTAATCCGTATTTGTA (site TAAAGCCCTTA)	1.58
CTCTACACATGGACCGGTTTTCCCGGTAATCCGTATTTGCC (site CTCTACACTAG)	0.72
ACACAAACATGGACCGGTTTTCCCGGTAATCCGTATTTGTC (site ACACCAACTGA)	0
